Results as given in ChEMBL document CHEMBL4725394 (J Med Chem, 2020).
Active and inactive are the calls of the source. The calls are words filed in the database; no cut-off is given here.

Experiments:
[1] = biological target: T1, Free fatty acid receptor 1 (Homo sapiens, UniProt O14842); assay: Agonist activity at human GPR40 expressed in CHO cells at 10 uM incubated for 60 mins by FLIPR based Ca2+ mobilization assay relative to gamma-linolenic acid; type: functional, cell-based
[2] = biological target: T1, Free fatty acid receptor 1; assay: Agonist activity at human GPR40 expressed in CHO cells incubated for 60 mins by FLIPR based Ca2+ mobilization assay relative to gamma-linolenic acid; type: functional, cell-based; conditions: filed as agonist
[3] = biological target: T1, Free fatty acid receptor 1; assay: Agonist activity at human GPR40 expressed in CHO cells incubated for 60 mins by FLIPR based Ca2+ mobilization assay; type: functional, cell-based
Rattus norvegicus [4] = assay: Suppression of glucose tolerance in Wistar Kyoto N-STZ-1.5 rat model of streptozotocin-induced diabetes at 10 mg/kg, po followed by glucose challenge; type: functional, organism-based
Rattus norvegicus [5] = assay: Stimulation of insulin secretion in Wistar Kyoto N-STZ-1.5 rat model of streptozotocin-induced diabetes at 10 mg/kg, po followed by glucose challenge by ELISA; type: functional, organism-based
[6] = Cytotoxicity in human HepG2 cells assessed as intracellular ATP content level at 30 uM by ATPlite-M assay relative to control; type: cell-based; conditions: time 1 day, read-out: Activity
HepG2 = assay: Cytotoxicity in human HepG2 cells assessed as caspase-3/7 activity level at 30 uM by Caspase-GloTM 3/7 assay relative to staurosporine; type: cell-based; conditions: hepg2, 24 h, time 1 day
[7] = biological target: T1, Free fatty acid receptor 1; assay: Agonist activity at human GPR40 expressed in CHO cells at 1 uM incubated for 60 mins by FLIPR based Ca2+ mobilization assay relative to gamma-linolenic acid; type: functional, cell-based
Rattus norvegicus [8] = assay: Suppression of body weight in Wistar Kyoto N-STZ-1.5 rat model of streptozotocin-induced diabetes at 0.1 to 1 mg/kg, po followed by glucose challenge during 2-week-dosing study; type: functional, organism-based; conditions: dose mg/kg 0.1-1, time 2.0 weeks
[9] = AUC (0 to 24 hrs) in Wistar Kyoto N-STZ-1.5 rat model of streptozotocin-induced diabetes at 0.1 to 1 mg/kg, po followed by glucose challenge during 2-week-dosing study; type: ADME, organism-based; set-up: time 2 weeks, dose 0.1-1; conditions: in vivo
Rattus norvegicus [10] = assay: Stimulation of GLP1 release in Wistar Kyoto N-STZ-1.5 rat model of streptozotocin-induced diabetes at 0.1 to 1 mg/kg, po followed by glucose challenge by ELISA; type: functional, organism-based; conditions: dose mg/kg 0.1-1
[11] = AUC (0 to 8 hrs ) in ICR mouse at 1 mg/kg, po by high-performance LC-tandem MS analysis; type: ADME, organism-based; set-up: time < 8 hr, route oral, dose 1 mg/kg; conditions: in vivo
[12] = MRT in Sprague-Dawley rat at 1 mg/kg, po by high-performance LC-tandem MS analysis; type: ADME, organism-based; conditions: in vivo
[13] = Cmax in Wistar Kyoto N-STZ-1.5 rat model of streptozotocin-induced diabetes at 0.1 to 1 mg/kg, po followed by glucose challenge during 2-week-dosing study; type: ADME, organism-based; set-up: time 2 weeks, dose 0.1-1; conditions: in vivo
[14] = Cmax in ICR mouse at 1 mg/kg, po by high-performance LC-tandem MS analysis; type: ADME, organism-based; set-up: route oral, dose 1 mg/kg; conditions: in vivo
[15] = Volume of distribution at steady state in Sprague-Dawley rat at 0.1 mg/kg, iv by high-performance LC-tandem MS analysis; type: ADME, organism-based; conditions: in vivo, read-out: Vdss
Rattus norvegicus [16] = assay: Stimulation of insulin secretion in Wistar Kyoto N-STZ-1.5 rat model of streptozotocin-induced diabetes at 0.1 to 1 mg/kg, po followed by glucose challenge by ELISA; type: functional, organism-based; conditions: dose mg/kg 0.1-1
[17] = Volume of distribution at steady state in ICR mouse at 0.1 mg/kg, iv by high-performance LC-tandem MS analysis; type: ADME, organism-based; conditions: in vivo, read-out: Vdss
[18] = Total clearance in Sprague-Dawley rat at 0.1 mg/kg, iv by high-performance LC-tandem MS analysis; type: ADME, organism-based; conditions: in vivo
[19] = Oral bioavailability in ICR mouse at 1 mg/kg by high-performance LC-tandem MS analysis; type: ADME, organism-based; conditions: in vivo
[20] = biological target: Voltage-gated inwardly rectifying potassium channel KCNH2 (Homo sapiens, UniProt Q12809); assay: Inhibition of human ERG
[21] = Oral bioavailability in Sprague-Dawley rat at 1 mg/kg by high-performance LC-tandem MS analysis; type: ADME, organism-based; conditions: in vivo
Rattus norvegicus [22] = assay: Suppression of glucose tolerance in Wistar Kyoto N-STZ-1.5 rat model of streptozotocin-induced diabetes at 0.1 to 1 mg/kg, po followed by glucose challenge; type: functional, organism-based; conditions: dose mg/kg 0.1-1
[23] = Total clearance in ICR mouse at 0.1 mg/kg, iv by high-performance LC-tandem MS analysis; type: ADME, organism-based; conditions: in vivo
[24] = MRT in ICR mouse at 1 mg/kg, po by high-performance LC-tandem MS analysis; type: ADME, organism-based; conditions: in vivo
[25] = AUC (0 to 8 hrs) in Sprague-Dawley rat at 1 mg/kg, po by high-performance LC-tandem MS analysis; type: ADME, organism-based; set-up: time < 8 hr, route oral, dose 1 mg/kg; conditions: in vivo
[26] = Cmax in Sprague-Dawley rat at 1 mg/kg, po by high-performance LC-tandem MS analysis; type: ADME, organism-based; set-up: route oral, dose 1 mg/kg; conditions: in vivo
[27] = biological target: T1, Free fatty acid receptor 1; assay: Binding affinity to human GPR40 expressed in CHO cells by LC-MS analysis; type: cell-based
[28] = AUC (0 to 24 hrs) in diabetic patient at 50 mg, po; type: ADME; set-up: dose 50 mg, time < 24 hr, route oral; conditions: human, in vivo
[29] = Cmax in diabetic patient at 50 mg, po; type: ADME; set-up: dose 50 mg, route oral; conditions: human, in vivo
[30] = biological target: T1, Free fatty acid receptor 1; assay: Binding affinity to human GPR40 expressed in CHO cells in presence of 10 and 100 nM […] by LC-MS analysis based competitive binding assay; type: cell-based; conditions: filed as agonist, dose nM 10-100
[31] = biological target: T1, Free fatty acid receptor 1; assay: Binding affinity to human GPR40 expressed in CHO cells assessed as formation of protein-ternary complex by LC-MS analysis; type: cell-based; conditions: filed as agonist

T1 sequence (O14842 whole entry): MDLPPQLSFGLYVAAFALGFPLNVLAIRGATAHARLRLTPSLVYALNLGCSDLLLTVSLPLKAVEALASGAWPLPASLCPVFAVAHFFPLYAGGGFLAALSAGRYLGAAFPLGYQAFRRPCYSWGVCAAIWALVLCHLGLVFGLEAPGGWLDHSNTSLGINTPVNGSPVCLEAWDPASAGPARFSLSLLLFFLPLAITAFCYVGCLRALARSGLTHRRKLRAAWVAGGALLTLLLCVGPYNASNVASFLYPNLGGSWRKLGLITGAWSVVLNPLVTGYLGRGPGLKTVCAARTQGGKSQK
Voltage-gated inwardly rectifying potassium channel KCNH2, sequence (Q12809 whole entry): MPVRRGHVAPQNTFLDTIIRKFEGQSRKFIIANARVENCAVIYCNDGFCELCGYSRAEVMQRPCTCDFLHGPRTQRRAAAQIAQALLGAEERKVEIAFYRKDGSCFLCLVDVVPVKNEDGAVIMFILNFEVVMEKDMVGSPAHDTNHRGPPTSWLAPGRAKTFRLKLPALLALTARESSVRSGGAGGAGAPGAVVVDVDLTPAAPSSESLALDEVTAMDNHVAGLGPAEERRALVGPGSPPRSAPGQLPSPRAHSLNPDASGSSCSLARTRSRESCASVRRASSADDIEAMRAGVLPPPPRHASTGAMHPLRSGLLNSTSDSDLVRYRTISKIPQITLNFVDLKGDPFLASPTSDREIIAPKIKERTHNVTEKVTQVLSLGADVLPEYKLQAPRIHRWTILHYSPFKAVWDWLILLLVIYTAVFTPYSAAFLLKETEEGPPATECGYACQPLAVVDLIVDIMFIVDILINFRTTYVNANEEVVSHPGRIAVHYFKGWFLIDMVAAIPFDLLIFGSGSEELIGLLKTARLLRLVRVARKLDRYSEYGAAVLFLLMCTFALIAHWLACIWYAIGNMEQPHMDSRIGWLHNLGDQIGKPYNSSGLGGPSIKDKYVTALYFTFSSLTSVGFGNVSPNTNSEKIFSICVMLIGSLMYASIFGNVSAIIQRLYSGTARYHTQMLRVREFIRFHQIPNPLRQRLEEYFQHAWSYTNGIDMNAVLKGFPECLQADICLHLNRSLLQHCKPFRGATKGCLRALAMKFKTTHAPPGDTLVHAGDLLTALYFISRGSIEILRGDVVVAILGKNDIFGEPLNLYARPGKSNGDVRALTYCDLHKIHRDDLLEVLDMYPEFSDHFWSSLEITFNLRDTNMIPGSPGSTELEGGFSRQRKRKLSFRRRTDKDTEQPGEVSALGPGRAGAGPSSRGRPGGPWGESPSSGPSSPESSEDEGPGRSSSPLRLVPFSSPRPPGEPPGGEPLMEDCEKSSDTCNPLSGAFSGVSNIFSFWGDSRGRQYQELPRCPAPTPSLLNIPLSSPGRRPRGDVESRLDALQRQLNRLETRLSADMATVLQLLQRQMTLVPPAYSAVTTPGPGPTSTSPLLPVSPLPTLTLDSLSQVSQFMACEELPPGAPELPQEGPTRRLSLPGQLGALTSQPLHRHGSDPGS

SMILES | Emax [2] [%] | EC50 [3] [µM] | viability at 24 h, 30 µM [6] [%] | Activity (HepG2) [%] | other results
COc1ccc(C(=O)N(CC(C)(C)C)c2cccc(C)n2)c(N2CCC(COc3cccc(C(CC(=O)O)C4CC4)n3)CC2)c1 (stereo unspecified) |  |  |  |  | Activity [1]: 39%
COc1ccc(C(=O)N(CC(C)(C)C)c2cccc(C)n2)c(N2CCC(COc3cccc(C4(CC(=O)O)COC4)c3)CC2)c1 | 115 | 0.84 |  |  | 
COc1ccc(C(=O)N(CC(C)(C)C)c2cccc(C)n2)c(N2CCC(COc3cc([C@H](CC(=O)O)C4CC4)ccn3)CC2)c1 | 109 | 0.083 |  |  | 
N[C@@H](CC(=O)N1CCn2c(nnc2C(F)(F)F)C1)Cc1cc(F)c(F)cc1F |  |  |  |  | Activity (Rattus norvegicus [4]): Active; Activity (Rattus norvegicus [5]): Active
COc1ccc(C(=O)N(CC(C)(C)C)c2cccc(C)n2)c(N2CCC(COc3cccc(C(CC(=O)O)OC)c3)CC2)c1 (stereo unspecified) | 109 | 0.062 |  |  | 
COc1ccc(F)c(-c2ccc(COc3cccc([C@@H](CC(=O)O)C4CC4)c3)nc2CC(C)(C)C)c1 | 66 | 0.15 |  |  | 
COc1ccc(CCC(C)(C)C)c(N2CCC(COc3cccc(C(CC(=O)O)C4CC4)c3)CC2)c1 (stereo unspecified) | 110 | 0.034 | 0.1 | 67.3 | 
COc1cccc(N2CCC(COc3cccc(C(CC(=O)O)C4CC4)c3)CC2)c1 (stereo unspecified) |  |  | 92 | -1.1 | Activity ([1]; filed as agonist): 91%; Activity [7]: 8%
COc1ccc(C(=O)N(CC(C)(C)C)c2cccc(C)n2)c(N2CCC(COc3cc([C@@H](CC(=O)O)C4CC4)ccn3)CC2)c1 | 108 | 0.012 | 92.1 |  | Activity (Rattus norvegicus [8]): Active; AUC(0-t) at 336 h [9]: 626 ng·h/mL; Activity (Rattus norvegicus [10]): Active; AUC(0-t) at 8 h [11]: 98.7 ng·h/mL; MRT [12]: 4.1 h; Cmax [13]: 139 ng/mL; Cmax [14]: 33.2 ng/mL; Vd [15]: 3.09 L/kg; Activity (Rattus norvegicus [16]): Active; Vd [17]: 1.35 L/kg; clearance [18]: 24.6 mL/min/kg; bioavailability [19]: 26%; IC50 [20]: > 10 µM; bioavailability [21]: 16%; Activity (Rattus norvegicus [22]): Active; clearance [23]: 43.1 mL/min/kg; MRT [24]: 2.3 h; AUC(0-t) at 8 h [25]: 127 ng·h/mL; Cmax [26]: 19.9 ng/mL
COc1ccc(C(=O)N(C)CC(C)(C)C)c(N2CCC(COc3cccc(C(CC(=O)O)C4CC4)c3)CC2)c1 (stereo unspecified) | 107 | 0.1 | 82.2 | 6.6 | 
COc1ccc(C(=O)N(CC(C)(C)C)c2cccc(C)n2)c(N2CCC(COc3cccc(C(CC(=O)O)C4CC4)c3)CC2)c1 (stereo unspecified) | 109 | 0.017 |  |  | 
COc1ccc(F)c(-c2ccc(COc3cccc([C@@H](CC(=O)O)C4CC4)c3)cc2C2=CCCC2(C)C)c1 | 182 | 0.15 |  |  | Kd [27]: 0.005 µM
COc1ccc(CCC(C)(C)O)c(N2CCC(COc3cccc(C(CC(=O)O)C4CC4)c3)CC2)c1 (stereo unspecified) | 109 | 0.97 | 76.6 | 0.1 | 
COc1ccc(F)c(N2CCC(COc3cccc(C(CC(=O)O)C4CC4)c3)CC2)c1 (stereo unspecified) | 114 | 0.67 | 72.7 | -1.7 | 
COc1ccc(C(=O)N(CC(C)C)c2ccccn2)c(N2CCC(COc3cccc(C(CC(=O)O)C4CC4)c3)CC2)c1 (stereo unspecified) | 107 | 0.029 |  |  | 
COc1ccc(C(C)C)c(N2CCC(COc3cccc(C(CC(=O)O)C4CC4)c3)CC2)c1 (stereo unspecified) | 117 | 0.12 | 0.1 | 43.4 | 

SMILES | Emax [2] [%] | EC50 [3] [µM] | viability at 24 h, 30 µM [6] [%] | Activity (HepG2) [%] | other results
COc1ccc(CCCC(C)(C)C)c(N2CC(COc3cccc(C(CC(=O)O)C4CC4)c3)C2)c1 (stereo unspecified) |  | 0.25 |  |  | 
COc1ccc(C)c(N2CCC(COc3cccc(C(CC(=O)O)C4CC4)c3)CC2)c1 (stereo unspecified) | 113 | 0.27 | 67.4 | 8.3 | 
CCOC(CC(=O)O)c1cccc(OCC2CCN(c3cc(OC)ccc3C(=O)N(CC(C)(C)C)c3cccc(C)n3)CC2)c1 (stereo unspecified) | 104 | 0.074 |  |  | 
COc1ccc(CCCC(C)(C)C)c(-c2ccc(COc3cccc(C(CC(=O)O)C4CC4)c3)cc2)c1 (stereo unspecified) | 105 | 0.41 |  |  | 
COc1ccc(C(=O)N(CC(C)(C)C#N)c2ccccn2)c(N2CCC(COc3cccc(C(CC(=O)O)C4CC4)c3)CC2)c1 (stereo unspecified) | 108 | 0.16 |  |  | 
Cc1cc(OCCCS(C)(=O)=O)cc(C)c1-c1cccc(COc2ccc3c(c2)OC[C@H]3CC(=O)O)c1 |  |  |  |  | AUC(0-t) at 24 h [28]: 100000 ng·h/mL; AUC(0-t) at 336 h [9]: 255 ng·h/mL; Cmax [13]: 39.8 ng/mL; Cmax [29]: 5300 ng/mL
COc1ccc(C(=O)N(CC(C)(C)C)c2ccccn2)c(N2CCC(COc3cccc(C(CC(=O)O)C4CC4)c3)CC2)c1 (stereo unspecified) | 110 | 0.026 |  |  | 
COc1ccc(CN(C)CC(C)C)c(N2CCC(COc3cccc(C(CC(=O)O)C4CC4)c3)CC2)c1 (stereo unspecified) | 110 | 1 | 80.7 | -1.1 | 
COc1ccc(C(=O)N(CC(C)(C)C)c2cccc(C)n2)c(N2CCC(COc3cc(C(CC(=O)O)C4CC4)ccn3)CC2)c1 (stereo unspecified) | 112 | 0.017 |  |  | 
COCC(CC(=O)O)c1cccc(OCC2CCN(c3cc(OC)ccc3C(=O)N(CC(C)(C)C)c3cccc(C)n3)CC2)c1 (stereo unspecified) | 104 | 0.12 |  |  | 
COc1ccc(CCCC(C)(C)C)c(N2CCC(Oc3cccc(C(CC(=O)O)C4CC4)c3)CC2)c1 (stereo unspecified) |  |  |  |  | Activity [1]: 22%
COc1ccc(C(=O)N(C)c2ccccn2)c(N2CCC(COc3cccc(C(CC(=O)O)C4CC4)c3)CC2)c1 (stereo unspecified) | 105 | 0.18 | 83.6 | -1.1 | 
COc1ccc(C(=O)N(C)c2ccccc2)c(N2CCC(COc3cccc(C(CC(=O)O)C4CC4)c3)CC2)c1 (stereo unspecified) | 101 | 0.14 | 79.3 | 2.8 | 
COc1ccc(CCCC(C)(C)C)c(N2CCC(COc3cccc(C(CC(=O)O)C4CC4)c3)CC2)c1 (stereo unspecified) | 106 | 0.011 | 0.1 | 26 | Activity [30]: Active; Activity [31]: Active
COc1ccc(C(=O)N(CC(C)(C)OC)c2ccccn2)c(N2CCC(COc3cccc(C(CC(=O)O)C4CC4)c3)CC2)c1 (stereo unspecified) | 105 | 0.1 |  |  | 
